From patent US20240285571A1, “METHODS OF TREATING BONE INFECTIONS” (MICROBION CORPORATION, priority 2020, published 2024) come the findings set out here.

Holding throughout (test): MIC of baseline clinical isolates (Example 8)
Common to all, as to type: cell-based

In one assay the test system is S. aureus (MRSA, MSSA). Particulars: Staphylococcus aureus, MRSA baseline isolates (N′ = 4), central laboratory, mITT. The procedure:
(§1) Microbiology was assessed on Day 1 and at the time of any subsequent surgical procedure at the index site. Samples were collected from the infected bone site or involved tissue adjacent to any implant(s), swabs of the deep infection site, and the superficial tissue/wound closure/sinus tract site. […] Parallel sets of samples were analyzed by the local clinical site laboratory to guide patient antibiotic treatment.

The next assay relates to Staphylococcus arlettae. Particulars: Staphylococcus arlettae baseline isolates (N′ = 1), central laboratory, mITT. How it is done:
as §1

Another assay has as its system Staphylococcus hominis. As to conditions: Staphylococcus hominis baseline isolates (N′ = 1), central laboratory, mITT. The procedure:
as §1

In the next assay the test system is Staphylococcus pasteuri. As to conditions: Staphylococcus pasteuri baseline isolates (N′ = 1), central laboratory, mITT. The procedure: as §1
The subject of assay [1] is Staphylococcus lugdunensis. As to conditions: Staphylococcus lugdunensis baseline isolates (N′ = 3), central laboratory, mITT. The procedure:
as §1

A further assay deals with S. epidermidis. As to conditions: Staphylococcus epidermidis baseline isolates (N′ = 5), central laboratory, mITT. The procedure: as §1
In assay [2] the test system is Staphylococcus haemolyticus. Particulars: Staphylococcus haemolyticus baseline isolates (N′ = 1), central laboratory, mITT. How it is done:
as §1

On to `CC1(C)S[C@@H]2[C@H](NC(=O)[C@H](N)c3ccccc3)C(=O)N2[C@H]1C(=O)O` [AMP], for which the “Mean MIC” value turned out to be 28.00 µg/mL in the assay on S. aureus (MRSA, MSSA); 0.50 µg/mL in the assay on Staphylococcus arlettae; 4.00 µg/mL in the assay with Staphylococcus hominis; 0.25 µg/mL in the assay with Staphylococcus pasteuri; 7.33 µg/mL in assay [1]; 2.60 µg/mL in the assay on S. epidermidis. Also, in assay [2], the “Mean MIC” value was found to be 16.00 µg/mL. Besides, the “n (% resistant)” value is recorded as 0 (0.0) n (%) in the assay on S. aureus (MRSA, MSSA); 0 (0.0) n (%) in the assay with Staphylococcus arlettae; 0 (0.0) n (%) in the assay with Staphylococcus hominis; 0 (0.0) n (%) in the assay with Staphylococcus pasteuri; 0 (0.0) n (%) in assay [1]; 0 (0.0) n (%) in the assay on S. epidermidis. Besides, the “n (% resistant)” value in assay [2] was 0 (0.0) n (%).

As for `Cc1onc(-c2ccccc2)c1C(=O)N[C@@H]1C(=O)N2[C@@H]1SC(C)(C)[C@@H]2C(=O)O` [OXA], the “n (% resistant)” value was 4 (100.0) n (%) in the assay on S. aureus (MRSA, MSSA); 1 (100.0) n (%) with Staphylococcus arlettae; 1 (100.0) n (%) in the assay on Staphylococcus hominis; 0 (0.0) n (%) with Staphylococcus pasteuri; 2. (66.7) n (%) in assay [1]; 2 (40.0) n (%) in the assay with S. epidermidis. The “n (% resistant)” value in assay [2] was 1 (100.0) n (%). The “Mean MIC” value was determined as 2.00 µg/mL in the assay with Staphylococcus arlettae; 4.00 µg/mL in the assay with Staphylococcus hominis; 0.25 µg/mL in the assay with Staphylococcus pasteuri; 2.83 µg/mL in assay [1]; 125 µg/mL in the assay on S. epidermidis; 4.00 µg/mL in assay [2].

As to `CN(C)c1ccc(O)c2c1C[C@H]1C[C@H]3[C@H](N(C)C)C(O)=C(C(N)=O)C(=O)[C@@]3(O)C(O)=C1C2=O` [MIN], the “Mean MIC” value in the assay with S. aureus (MRSA, MSSA) is 0.11 µg/mL; with Staphylococcus arlettae it was 0.25 µg/mL; in the assay on Staphylococcus hominis it was 0.12 µg/mL; in the assay with Staphylococcus pasteuri, 0.06 µg/mL; in assay [1], 0.05 µg/mL; with S. epidermidis, 0.18 µg/mL. Besides, in assay [2], the “Mean MIC” value was 0.12 µg/mL. Moreover, the “n (% resistant)” value with S. aureus (MRSA, MSSA) is 0 (0.0) n (%); in the assay on Staphylococcus arlettae, 0 (0.0) n (%); in the assay with Staphylococcus hominis, 0 (0.0) n (%); with Staphylococcus pasteuri it was 0 (0.0) n (%); in assay [1], 0 (0 0) n (%); in the assay with S. epidermidis it was 0 (0.0) n (%). In addition, the “n (% resistant)” value in assay [2] is 0 (0.0) n (%).
